For the series, the target named is T1, hERG channel (Homo sapiens, UniProt Q12809).
T1 construct: expressed in transfected cells
Description: hERG channel inhibition assay (patch-clamp, CHO hERG cells). It counts as cell-based. Particulars: whole-cell patch-clamp; for IC20: human, CHO cells stably expressing hERG. The procedure:
hERG Channel Inhibition Assay
The hERG K^+ channels were cloned in humans and stably expressed in a CHO (Chinese hamster ovary) cell line. CHOhERG cells were used for patch-clamp (voltage-clamp, whole-cell) experiments. Cells were stimulated by a voltage pattern to activate hERG channels and conduct IKhERG currents (rapid delayed outward rectifier potassium current of the hERG channel). After the cells were stabilized for a few minutes, the amplitude and kinetics of IKhERG were recorded at a stimulation frequency of 0.1 Hz (6 bpm). Thereafter, the test compound was added to the preparation at increasing concentrations. For each concentration, an attempt was made to reach a steady-state effect, usually, this was achieved within 3-10 min at which time the next highest concentration was applied. The amplitude and kinetics of IKhERG are recorded in each concentration of the drug which were compared to the control values (taken as 100%). (references: Redfern W S, Carlsson L, Davis A S, Lynch W G, MacKenzie I, Palethorpe S, Siegl P K, Strang I, Sullivan A T, Wallis R, Camm A J, Hammond T G. 2003; Relationships between preclinical cardiac electrophysiology, clinical QT interval prolongation and torsade de pointes for a broad range of drugs: evidence for a provisional safety margin in drug development. Cardiovasc. Res. 58:32-45, Sanguinetti M C, Tristani-Firouzi M. 2006; hERG potassium channels and cardiac arrhythmia. Nature 440:463-469, Webster R, Leishman D, Walker D. 2002; Towards a drug concentration effect relationship for QT prolongation and torsades de pointes. Curr. Opin. Drug Discov. Devel. 5:116-26).
On the technique in general: The hERG channel carries a current that helps repolarise heart muscle cells.

The text below walks through data of US12421240B2, “Hydropyrazino[1,2-d][1,4]diazepine compounds for the treatment of autoimmune disease” (Hoffmann-La Roche Inc., priority 2019, dated 2025).

T1 sequence (Q12809 whole entry): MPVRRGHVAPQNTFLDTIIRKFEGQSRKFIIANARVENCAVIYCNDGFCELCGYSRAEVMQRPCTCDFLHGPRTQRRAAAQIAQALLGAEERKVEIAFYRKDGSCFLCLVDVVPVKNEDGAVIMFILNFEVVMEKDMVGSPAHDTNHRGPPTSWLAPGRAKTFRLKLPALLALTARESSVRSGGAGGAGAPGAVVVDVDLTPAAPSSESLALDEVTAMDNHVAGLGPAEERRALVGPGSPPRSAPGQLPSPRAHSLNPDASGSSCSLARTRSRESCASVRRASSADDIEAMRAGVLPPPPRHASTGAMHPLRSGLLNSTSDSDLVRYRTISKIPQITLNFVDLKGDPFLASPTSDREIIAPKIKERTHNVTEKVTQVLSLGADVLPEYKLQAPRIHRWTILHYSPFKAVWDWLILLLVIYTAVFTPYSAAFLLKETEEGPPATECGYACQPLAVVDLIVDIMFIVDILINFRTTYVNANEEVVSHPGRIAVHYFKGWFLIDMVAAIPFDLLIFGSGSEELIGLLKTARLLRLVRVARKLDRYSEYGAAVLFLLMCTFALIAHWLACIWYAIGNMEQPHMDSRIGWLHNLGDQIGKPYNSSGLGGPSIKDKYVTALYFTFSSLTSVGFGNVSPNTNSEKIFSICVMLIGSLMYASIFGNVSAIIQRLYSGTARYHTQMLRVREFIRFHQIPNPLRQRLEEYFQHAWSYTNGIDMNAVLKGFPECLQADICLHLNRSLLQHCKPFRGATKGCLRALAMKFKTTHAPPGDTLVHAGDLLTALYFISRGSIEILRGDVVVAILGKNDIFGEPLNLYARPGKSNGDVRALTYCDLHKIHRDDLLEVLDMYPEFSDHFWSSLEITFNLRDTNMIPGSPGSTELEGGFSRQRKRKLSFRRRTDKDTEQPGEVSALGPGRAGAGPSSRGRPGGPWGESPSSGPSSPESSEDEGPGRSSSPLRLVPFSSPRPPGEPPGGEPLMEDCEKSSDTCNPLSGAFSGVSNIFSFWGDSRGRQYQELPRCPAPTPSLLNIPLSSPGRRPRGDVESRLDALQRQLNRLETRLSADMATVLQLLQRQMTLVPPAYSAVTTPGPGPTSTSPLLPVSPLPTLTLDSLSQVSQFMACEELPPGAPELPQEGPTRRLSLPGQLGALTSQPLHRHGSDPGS

What is called IC20 is the point of the concentration-response curve where the effect stands at 20%. Lower therefore signals greater potency. Usually IC50 stands for the concentration needed to halve the response being measured. Low values mean greater potency, high ones weaker potency. In the case of `C[C@@H]1CN(c2ccc(C#N)c3ncccc23)C[C@@H]2CCN(c3cc4c(cn3)CNCC4)CCN21` [Example 7, 5-[(4R,10aS)-4-methyl-8-(5,6,7,8-tetrahydro-2,7-naphthyridin-3-yl)-1,3,4,6,7,9,10,10a-octahydropyrazino[1,2-d][1,4]diazepin-2-yl]quinoline-8-carbonitrile], the IC20 was more than 10 µM and the IC50 is more than 20 µM.
For `C[C@@H]1CN(c2ccc(C#N)c3ncccc23)C[C@@H]2CCN(Cc3cnc4c(c3)CNCC4)CCN21` [Example 10, 5-[(4R,10aS)-4-methyl-8-(5,6,7,8-tetrahydro-1,6-naphthyridin-3-ylmethyl)-1,3,4,6,7,9,10,10a-octahydropyrazino[1,2-d][1,4]diazepin-2-yl]quinoline-8-carbonitrile] the same measures were more than 10 µM and more than 20 µM.
The compound `C[C@@H]1CN(c2ccc(C#N)c3ncccc23)C[C@@H]2CCN(Cc3cnc(N4CCNCC4)cn3)CCN21` [Example 15, 5-[(4R,10aS)-4-methyl-8-[(5-piperazin-1-ylpyrazin-2-yl)methyl]-1,3,4,6,7,9,10,10a-octahydropyrazino[1,2-d][1,4]diazepin-2-yl]quinoline-8-carbonitrile] displayed an IC20 of more than 10 µM and an IC50 of more than 20 µM.
